Source: patent publication US6355799B1, “Substituted benzene compounds, process for their preparation, and herbicidal and defoliant compositions containing them” (ISK Americas Incorporated, priority 1997, dated 2002)

How the values were obtained:
Type in all cases: in vivo
[1] = tested on: redroot pigweed (Amaranthus retroflexus, AMARE); assay: Pre-emerge test, greenhouse herbicide activity screening; conditions: pre-emerge; for Pre-emerge Herbicidal Activity AMARE: phytotoxicity rating 0-100 at 14 days after application; for phytotoxicity rating AMARE: 14 days after application, scale 0-100
In short: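 Visual ratings on a 0-100 scale (0 no damage, 100 all plants dead) were taken at 14 days after treatment. Rates of 15-1000 g ai/ha in acetone, 187 l/ha, were sprayed onto soil one day after planting (pre-emerge) or onto 2-3 leaf plants with 0.25% v/v surfactant (post-emerge).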

[2] = tested on: field corn (Zea mays L., var. Dekalb 535, CORN); assay: Pre-emerge test, crop safety; conditions: pre-emerge; for Pre-emerge Herbicidal Activity CORN: crop damage, phytotoxicity rating 0-100 at 14 days after application; for phytotoxicity rating CORN (crop damage): 14 days after application, scale 0-100
In short: (§1)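 Plants grown in 10 cm pots of sandy loam mix received acetone-dissolved compounds through a moving flat-fan nozzle. Doses ranged from 15 to 1000 g ai/ha. Pre-emerge pots were seeded one day earlier, post-emerge pots 8–21 days earlier. Fourteen days on, each pot was graded 0–100 for damage.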

[3] = tested on: upland rice (Oryza sp., var. Tebonnet, RICE); assay: Pre-emerge test, crop safety; conditions: pre-emerge; for Pre-emerge Herbicidal Activity RICE: crop damage, phytotoxicity rating 0-100 at 14 days after application; for phytotoxicity rating RICE (crop damage): 14 days after application, scale 0-100
In short: as §1

[4] = tested on: velvetleaf (Abutilon theophrasti, ABUTH); assay: Pre-emerge test, greenhouse herbicide activity screening; conditions: pre-emerge; for Pre-emerge Herbicidal Activity ABUTH: phytotoxicity rating 0-100 at 14 days after application; for phytotoxicity rating ABUTH: 14 days after application, scale 0-100
In short: as §1

[5] = tested on: sicklepod (Cassia obtusifolia, CASOB); assay: as above; conditions: pre-emerge; for Pre-emerge Herbicidal Activity CASOB: phytotoxicity rating 0-100 at 14 days after application; for phytotoxicity rating CASOB: 14 days after application, scale 0-100
In short: as §1

[6] = tested on: barnyardgrass (Echinochloa crus-galli, ECHCG); assay: as above; conditions: pre-emerge; for Pre-emerge Herbicidal Activity ECHCG: phytotoxicity rating 0-100 at 14 days after application; for phytotoxicity rating ECHCG: 14 days after application, scale 0-100
In short: as §1

[7] = tested on: johnsongrass (Sorghum halepense, SORHA); assay: as above; conditions: pre-emerge; for Pre-emerge Herbicidal Activity SORHA: phytotoxicity rating 0-100 at 14 days after application; for phytotoxicity rating SORHA: 14 days after application, scale 0-100
In short: as §1

[8] = tested on: large crabgrass (Digitaria sanguinalis, DIGSA); assay: as above; conditions: pre-emerge; for Pre-emerge Herbicidal Activity DIGSA: phytotoxicity rating 0-100 at 14 days after application; for phytotoxicity rating DIGSA: 14 days after application, scale 0-100
In short: as §1

[9] = tested on: green foxtail (Setaria viridis, SETVI); assay: as above; conditions: pre-emerge; for Pre-emerge Herbicidal Activity SETVI: phytotoxicity rating 0-100 at 14 days after application; for phytotoxicity rating SETVI: 14 days after application, scale 0-100
In short: as §1

[10] = tested on: lambsquarters (Chenopodium album, CHEAL); assay: as above; conditions: pre-emerge; for Pre-emerge Herbicidal Activity CHEAL: phytotoxicity rating 0-100 at 14 days after application; for phytotoxicity rating CHEAL: 14 days after application, scale 0-100
In short: as §1

[11] = tested on: ivyleaf morningglory (Ipomoea hederacea, IPOHE); assay: as above; conditions: pre-emerge; for Pre-emerge Herbicidal Activity IPOHE: phytotoxicity rating 0-100 at 14 days after application; for phytotoxicity rating IPOHE: 14 days after application, scale 0-100
In short: as §1

[12] = tested on: field corn (Zea mays L., var. Dekalb 535, CORN); assay: Post-emerge test, crop safety; conditions: post-emerge, 14 days after application, rating scale 0-100
In short: (§2)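 Each test used a mechanized track sprayer delivering 187 l/ha of acetone solution at 15–1000 g ai/ha. Post-emerge foliage at 2–3 leaves was treated with added 0.25% v/v non-ionic surfactant and bottom-watered only. Injury was assessed on day 14, where 100 means total kill.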

[13] = tested on: upland rice (Oryza sp., var. Tebonnet, RICE); assay: Post-emerge test, crop safety; conditions: post-emerge, 14 days after application, rating scale 0-100
In short: as §2

[14] = tested on: velvetleaf (Abutilon theophrasti, ABUTH); assay: Post-emerge test, greenhouse herbicide activity screening; conditions: post-emerge, 14 days after application, rating scale 0-100
In short: (§3)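 Sandy loam pots; pre-emerge: sown 1 d pre-spray, surface-watered after, then bottom-watered. Post-emerge: sown 8–21 d before, 2–3 leaf stage, + 0.25% v/v NIS, bottom-watered. Acetone, 187 l/ha track spray, 15–1000 g ai/ha. 0–100 injury score, day 14.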

[15] = tested on: sicklepod (Cassia obtusifolia, CASOB); assay: as above; conditions: post-emerge, 14 days after application, rating scale 0-100
In short: as §3

[16] = tested on: barnyardgrass (Echinochloa crus-galli, ECHCG); assay: as above; conditions: post-emerge, 14 days after application, rating scale 0-100
In short: as §3

[17] = tested on: large crabgrass (Digitaria sanguinalis, DIGSA); assay: as above; conditions: post-emerge, 14 days after application, rating scale 0-100
In short: as §3

[18] = tested on: redroot pigweed (Amaranthus retroflexus, AMARE); assay: as above; conditions: post-emerge, 14 days after application, rating scale 0-100
In short: as §3

[19] = tested on: green foxtail (Setaria viridis, SETVI); assay: as above; conditions: post-emerge, 14 days after application, rating scale 0-100
In short: as §3

[20] = tested on: ivyleaf morningglory (Ipomoea hederacea, IPOHE); assay: as above; conditions: post-emerge, 14 days after application, rating scale 0-100
In short: as §3

CC(C)Oc1c(Cl)cc(Cl)c(-n2nnn(CCCF)c2=O)c1N [Compound 5-16]
20: Pre-emerge Herbicidal Activity CHEAL ([10]; rate 250 g ai/ha)
0: Pre-emerge Herbicidal Activity AMARE ([1]; rate 63 g ai/ha) | Pre-emerge Herbicidal Activity AMARE ([1]; rate 250 g ai/ha) | Pre-emerge Herbicidal Activity CORN ([2]; rate 63 g ai/ha) | Pre-emerge Herbicidal Activity CORN ([2]; rate 250 g ai/ha) | Pre-emerge Herbicidal Activity RICE ([3]; rate 63 g ai/ha) | Pre-emerge Herbicidal Activity RICE ([3]; rate 250 g ai/ha) | Pre-emerge Herbicidal Activity ABUTH ([4]; rate 63 g ai/ha) | Pre-emerge Herbicidal Activity ABUTH ([4]; rate 250 g ai/ha) | Pre-emerge Herbicidal Activity CASOB ([5]; rate 63 g ai/ha) | Pre-emerge Herbicidal Activity CASOB ([5]; rate 250 g ai/ha) | Pre-emerge Herbicidal Activity ECHCG ([6]; rate 63 g ai/ha) | Pre-emerge Herbicidal Activity ECHCG ([6]; rate 250 g ai/ha) | Pre-emerge Herbicidal Activity SORHA ([7]; rate 63 g ai/ha) | Pre-emerge Herbicidal Activity SORHA ([7]; rate 250 g ai/ha) | Pre-emerge Herbicidal Activity DIGSA ([8]; rate 63 g ai/ha) | Pre-emerge Herbicidal Activity DIGSA ([8]; rate 250 g ai/ha) | Pre-emerge Herbicidal Activity SETVI ([9]; rate 63 g ai/ha) | Pre-emerge Herbicidal Activity SETVI ([9]; rate 250 g ai/ha) | Pre-emerge Herbicidal Activity CHEAL ([10]; rate 63 g ai/ha) | Pre-emerge Herbicidal Activity IPOHE ([11]; rate 63 g ai/ha) | Pre-emerge Herbicidal Activity IPOHE ([11]; rate 250 g ai/ha)

COc1c(Cl)cc(Cl)c(-n2c(=O)cc(C(F)(F)F)n(C)c2=O)c1NC(=O)c1ccc2ccccc2c1 [2-144]
99: phytotoxicity rating AMARE ([1]; 63 g ai/ha)
60: CASOB phytotoxicity rating ([15]; 63 g ai/ha) | IPOHE phytotoxicity rating ([20]; 63 g ai/ha)
100: phytotoxicity rating AMARE ([1]; 250 g ai/ha) | ABUTH phytotoxicity rating ([14]; 250 g ai/ha) | phytotoxicity rating ABUTH ([4]; 250 g ai/ha) | phytotoxicity rating CHEAL ([10]; 63 g ai/ha) | phytotoxicity rating CHEAL ([10]; 250 g ai/ha)
10: ECHCG phytotoxicity rating ([16]; 250 g ai/ha) | phytotoxicity rating SORHA ([7]; 63 g ai/ha)
45: phytotoxicity rating RICE (crop damage) ([3]; 250 g ai/ha)
30: SETVI phytotoxicity rating ([19]; 250 g ai/ha) | phytotoxicity rating IPOHE ([11]; 250 g ai/ha)
70: IPOHE phytotoxicity rating ([20]; 250 g ai/ha) | phytotoxicity rating ABUTH ([4]; 63 g ai/ha) | phytotoxicity rating SORHA ([7]; 250 g ai/ha) | phytotoxicity rating DIGSA ([8]; 250 g ai/ha)
90: AMARE phytotoxicity rating ([18]; 250 g ai/ha) | phytotoxicity rating SETVI ([9]; 250 g ai/ha)
75: AMARE phytotoxicity rating ([18]; 63 g ai/ha) | phytotoxicity rating ECHCG ([6]; 250 g ai/ha)
85: ABUTH phytotoxicity rating ([14]; 63 g ai/ha) | CASOB phytotoxicity rating ([15]; 250 g ai/ha)
40: CORN phytotoxicity rating (crop damage) ([12]; 63 g ai/ha) | phytotoxicity rating SETVI ([9]; 63 g ai/ha)
0: ECHCG phytotoxicity rating ([16]; 63 g ai/ha) | DIGSA phytotoxicity rating ([17]; 63 g ai/ha) | DIGSA phytotoxicity rating ([17]; 250 g ai/ha) | SETVI phytotoxicity rating ([19]; 63 g ai/ha) | phytotoxicity rating CORN (crop damage) ([2]; 63 g ai/ha) | phytotoxicity rating CORN (crop damage) ([2]; 250 g ai/ha) | phytotoxicity rating CASOB ([5]; 63 g ai/ha) | phytotoxicity rating IPOHE ([11]; 63 g ai/ha)
15: RICE phytotoxicity rating (crop damage) ([13]; 63 g ai/ha)
20: CORN phytotoxicity rating (crop damage) ([12]; 250 g ai/ha) | phytotoxicity rating RICE (crop damage) ([3]; 63 g ai/ha) | phytotoxicity rating CASOB ([5]; 250 g ai/ha) | phytotoxicity rating ECHCG ([6]; 63 g ai/ha) | phytotoxicity rating DIGSA ([8]; 63 g ai/ha)
35: RICE phytotoxicity rating (crop damage) ([13]; 250 g ai/ha)

C#CCOc1c(Cl)cc(Cl)c(-n2nnn(CCCF)c2=O)c1N [Compound 5-15]
0: Pre-emerge Herbicidal Activity AMARE ([1]; rate 63 g ai/ha) | Pre-emerge Herbicidal Activity AMARE ([1]; rate 250 g ai/ha) | Pre-emerge Herbicidal Activity CORN ([2]; rate 63 g ai/ha) | Pre-emerge Herbicidal Activity CORN ([2]; rate 250 g ai/ha) | Pre-emerge Herbicidal Activity RICE ([3]; rate 63 g ai/ha) | Pre-emerge Herbicidal Activity RICE ([3]; rate 250 g ai/ha) | Pre-emerge Herbicidal Activity ABUTH ([4]; rate 63 g ai/ha) | Pre-emerge Herbicidal Activity ABUTH ([4]; rate 250 g ai/ha) | Pre-emerge Herbicidal Activity CASOB ([5]; rate 63 g ai/ha) | Pre-emerge Herbicidal Activity CASOB ([5]; rate 250 g ai/ha) | Pre-emerge Herbicidal Activity ECHCG ([6]; rate 63 g ai/ha) | Pre-emerge Herbicidal Activity ECHCG ([6]; rate 250 g ai/ha) | Pre-emerge Herbicidal Activity SORHA ([7]; rate 63 g ai/ha) | Pre-emerge Herbicidal Activity SORHA ([7]; rate 250 g ai/ha) | Pre-emerge Herbicidal Activity DIGSA ([8]; rate 63 g ai/ha) | Pre-emerge Herbicidal Activity DIGSA ([8]; rate 250 g ai/ha) | Pre-emerge Herbicidal Activity SETVI ([9]; rate 63 g ai/ha) | Pre-emerge Herbicidal Activity SETVI ([9]; rate 250 g ai/ha) | Pre-emerge Herbicidal Activity CHEAL ([10]; rate 63 g ai/ha) | Pre-emerge Herbicidal Activity CHEAL ([10]; rate 250 g ai/ha) | Pre-emerge Herbicidal Activity IPOHE ([11]; rate 63 g ai/ha) | Pre-emerge Herbicidal Activity IPOHE ([11]; rate 250 g ai/ha)
